Several values for one entry are separate records, joined by “and”; a condition that tells them apart may be missing. Identical values can stand only once.
Columns and labels:
MCF-7 cells [1] = assay: Clonogenic assay; format: cell-based, human; conditions: for IC50: Homo sapiens, MCF7, MCF-7, 72 h exposure, 14 days culture, read-out: IC50 (M ± SD) in clonogenic assay
Procedure: (§1) The clonogenic assay was carried out utilizing the previously published methodology. The MCF-7, MDA-MB-231, HCC1954, and MCF-10A cells (500 cells/2 mL) were seeded in a 12-well plate overnight. Afterward, studied derivatives or doxorubicin (1, 2.5, 5, 10, and 50 µM) were added to cells. The media was changed after 72 h to a compound-free one, and the cells were cultured for the following 14 days. Then, the cells were washed, fixed, and stained with 0.1% crystal violet. After washing, the plates were dried at room temperature. The colonies were recorded by ImageJ software (Version 1.30). The value of colonies in control (non-treated cells) was accepted as 100%. The effect of compounds on the colony-forming ability of cells was expressed as the percentage of colonies compared to the control.

MMP-2 in MCF-7 cells = assay: MMP-2 ELISA in culture supernatants; format: cell-based, human; conditions: MCF-7, 24 h, control 610.57 pg/mL
Procedure: (§2) In order to determine the Beclin-1 concentration in the cell lysates, the SimpleStep ELISA (Abcam, Cambridge, UK) Kit was used. MMP-2, MMP-9, and ICAM-1 concentrations were measured in culture supernatants using high-sensitivity human SimpleStep ELISA kits (Abcam, Cambridge, UK) according to the manufacturer’s protocols. The LC3B ELISA kit (BT LAB, Shanghai, China) was used to check the protein concentration in cell lysates from analyzed breast cancer cells. The procedure for preparing the samples was shown previously.

[2] = tested on: MMP-2 in MDA-MB-231 cells; assay: MMP-2 ELISA in culture supernatants; format: cell-based, human; conditions: MDA-MB-231, 24 h, 2 μM; control 1055.21 pg/mL
Procedure: as §2

MDA-MB-231 cells = assay: Annexin V/PI flow cytometry of apoptosis; format: cell-based, human; conditions: MDA-MB-231, 24 h
Procedure: (§3) Cells were washed twice with cold PBS and resuspended in the Binding Buffer from the Kit. The FITC Annexin V and propidium iodide (PI) were added to 100 µL of cell suspension and incubated for 15 min at room temperature, protected from light. Then, 300 µL of Binding Buffer was added, and samples were analyzed using a flow cytometer. A total of 10,000 events were measured. The FACSDiva software (Version 6.1.3, BD Biosciences Systems, San Jose, CA, USA) was applied to analyze all flow cytometry data. The BD Cytometer Setup and Tracking Beads (BD Biosciences, San Diego, CA, USA) were used for the calibration of the flow cytometer.

MCF-7 cells [3] = assay: Annexin V/PI flow cytometry of apoptosis; format: cell-based, human; conditions: MCF-7, 24 h
Procedure: as §3

MCF-10A cells [4] = assay: Clonogenic assay; format: cell-based; conditions: Homo sapiens; for IC50: 72 h exposure, 14 days culture, read-out: IC50 (M ± SD) in clonogenic assay
Procedure: as §1

[5] = tested on: ICAM-1 in MDA-MB-231 cells; assay: ICAM-1 ELISA in culture supernatants; format: cell-based, human; conditions: for ICAM-1 concentration: 2 µM (highest dose), control 841.55 pg/mL
Procedure: as §2

[6] = tested on: MMP-9 in MDA-MB-231 cells; assay: MMP-9 ELISA in culture supernatants; format: cell-based, human; conditions: MDA-MB-231, 24 h, all examined doses
Procedure: as §2

BECN1 in MCF-7 cells = assay: qPCR gene expression; format: cell-based, human; conditions: MCF-7, 24 h, 1 µM
Procedure: (§4) Total RNA was isolated using the RNeasy Mini Kit (Qiagen, Venlo, The Netherlands) according to the manufacturer’s protocol and quantified on a NanoDrop spectrophotometer (NanoDrop™ One/OneC, ThermoFisher, Waltham, MA, USA). Next, 1 μg of RNA from every sample was reverse transcribed using a High-Capacity cDNA Reverse Transcription Kit (ThermoFisher, Waltham, MA, USA) according to the standard manufacturer’s instructions. The expression of genes, namely MAP1LC3b (Bio-Rad, Hercules, CA, USA) and BECN1 (Bio-Rad, Hercules, CA, USA), was evaluated using SsoAdvanced Universal SYBR Green Supermix (Bio-Rad, Hercules, CA, USA) on the StepOne Plus system (ThermoFisher, Waltham, MA, USA). StepOne Software v2.3 (Thermo Fisher Scientific, Waltham, MA, USA) was used for results calculations. The results were normalized to GAPDH (Bio-Rad, Hercules, CA, USA) and untreated cells (control). Data were presented as a relative expression using the 2^−ΔΔCt method.

[7] = tested on: MAP1LC3B in MDA-MB-231 cells; assay: qPCR gene expression; format: cell-based, human; conditions: MDA-MB-231, 24 h, 1 µM
Procedure: as §4

[8] = tested on: BECN1 in MDA-MB-231 cells; assay: qPCR gene expression; format: cell-based, human; conditions: MDA-MB-231, 24 h, 1 µM
Procedure: as §4

MAP1LC3B in MCF-7 cells = assay: qPCR gene expression; format: cell-based, human; conditions: MCF-7, 24 h, 1 µM
Procedure: as §4

MCF-10A cells [9] = assay: MTT assay; format: cell-based, human; conditions: Homo sapiens, MCF-10A, MCF-10A
Procedure: The MCF-7 and MDA-MB-231 cells were cultured in the DMEM medium containing 10% of the FBS, HCC1954, T-47D, and 4T1 cells in the RPMI-1640 medium with the addition of 10% of the FBS, and MCF-10A cells in MEGM Mammary Epithelial Cell Growth Medium BulletKit supplemented with penicillin/streptomycin cocktail and 5% of horse serum. The cells were cultured in a […] atmosphere at 5% CO2 and 37 °C. After trypsinization, cells were counted using a Scepter 3.0 handheld automated cell counter (Millipore, Burlington, MA, USA).
The MTT test was used to assess the metabolic activity of cells treated with the investigated substances following the Sigma-Aldrich manufacturer’s instructions. Briefly, compounds were added in 100 µL of the cultural medium, and cells were incubated for the next 24 and 48 h. Doxorubicin was used as a reference drug. The DMSO was added to dissolve the crystals of formazan. We used the ThermoScientific Evolution 201 UV–VIS spectrophotometer (ThermoFisher Scientific, Waltham, MA, USA) to measure the absorbance of formazan at 570 nm. The initial value of the relative number of cells in control (under 0.1% of the DMSO) was accepted as 100%. We used GraphPad Prism Version 9 to calculate the half-maximal inhibition concentration (IC50) of the studied compounds (the concentration of the drug that reduced cell viability by 50%).

[10] = 24 h, 24 h, read-out: IC50, µM (M ± SD)
[11] = 48 h, 48 h, read-out: IC50, µM (M ± SD)

SMILES | IC50 (MCF-7 cells [1]) | concentration of MMP-2 [2] | early apoptotic cells (MDA-MB-231 cells; 1 µM) | late apoptotic cells (MDA-MB-231 cells; 1 µM) | necrotic cells (MDA-MB-231 cells; 1 µM) | early apoptotic cells (MCF-7 cells [3]; 1 µM) | late apoptotic cells (MCF-7 cells [3]; 1 µM) | necrotic cells (MCF-7 cells [3]; 1 µM) | IC50 (MCF-10A cells [4]) | ICAM-1 concentration ([5]; MDA-MB-231, 24 h) | MMP-9 concentration versus control [6] | BECN1 gene expression compared to control cells (BECN1 in MCF-7 cells) | MAP1LC3B gene expression compared to control cells [7] | BECN1 gene expression compared to control cells [8] | MAP1LC3B gene expression compared to control cells (MAP1LC3B in MCF-7 cells) | IC50 (MCF-10A cells [9]; [10]) | IC50 (MCF-10A cells [9]; [11]) | also measured
COc1cccc2c1C(=O)c1c(O)c3c(c(O)c1C2=O)C[C@@](O)(C(=O)CO)C[C@@H]3O[C@H]1C[C@H](N)[C@H](O)[C@H](C)O1 [Dox, doxorubicin, reference compound] | 420 ± 80 nM | 470.57 pg/mL | 0.10 ± 0.01% | 42.20 ± 17.25% | 51.25 ± 3.36% and 51.25% | 0.55 ± 0.07% | 60.60 ± 7.35% | 31.75 ± 5.59% and 31.75% | 470 ± 110 nM | 583.04 pg/mL | decreased | significantly increased | significantly increased | significantly increased | significantly increased | 15.9 ± 0.91 µM | 0.23 ± 0.05 µM | concentration of MMP-2 (MMP-2 in MCF-7 cells; 2 μM): 425.40 pg/mL; ICAM-1 concentration versus control ([5]; MDA-MB-231, 24 h, 1.0 and 1.5 µM): increased
O=C1CC(N2C(=O)C(=CC(Cl)=Cc3ccc([N+](=O)[O-])cc3)SC2=S)C(=O)N1c1ccc(O)cc1 (stereo not shown) [Les-6287, 1-(4-hydroxyphenyl)-3-[5-[2-chloro-3-(4-nitrophenyl)prop-2-enylidene]-4-oxo-2-thioxothiazolidine-3-yl]pyrrolidine-2,5-dione] | 420 ± 80 nM | 711.74 pg/mL | 2.10 ± 0.14% | 5.10 ± 0.49% | 0.90 ± 0.02% | 3.85 ± 1.20% | 21.60 ± 0.78% | 0.50 ± 0.24% | > 50000 nM | 157.25 pg/mL | decreased | did not affect | did not affect | did not affect | did not affect | 93 ± 2.29 µM | 64.6 ± 0.68 µM | formation of colonies (MCF-7 cells [1]; MCF-7, compound at 1 µM): totally inhibited; concentration of MMP-2 (MMP-2 in MCF-7 cells; compound concentration not stated (most significant decrease)): 395.91 pg/mL; early apoptotic cells (MDA-MB-231 cells; 1.5 µM): 5.65 ± 0.92%; late apoptotic cells (MDA-MB-231 cells; 1.5 µM): 29.00 ± 9.76%; necrotic cells (MDA-MB-231 cells; 1.5 µM): 4.50 ± 1.82%; necrotic cells, range (MDA-MB-231 cells; 1 and 1.5 µM): 0.90–4.50%; early apoptotic cells (MCF-7 cells [3]; 1.5 µM): 2.30 ± 0.42%; late apoptotic cells (MCF-7 cells [3]; 1.5 µM): 29.35 ± 6.43%; necrotic cells (MCF-7 cells [3]; 1.5 µM): 0.30 ± 0.11%; necrotic cells, range (MCF-7 cells [3]; 1 and 1.5 µM): 0.30–0.50%; inhibition at 50 µM (MCF-10A cells [4]; compound at 50 µM, read-out: inhibition of the formation of colonies): 32.6%; inhibitory effect on ICAM-1 concentration relative to doxorubicin ([5]; MDA-MB-231): almost four times stronger; IC50 (MCF-10A cells [9]; time point not specified (24 and 48 h), read-out: IC50 towards MCF-10A cells): > 64.6 µM

Reference: paper PMC11352273, “The Proapoptotic Action of Pyrrolidinedione–Thiazolidinone Hybrids towards Human Breast Carcinoma Cells Does Not Depend on Their Genotype” (Cancers, 2024)
